The record followed here is patent US20120214862A1, “MODULATION OF FACTOR 7 EXPRESSION” (ISIS Pharmaceuticals, Inc., priority 2009, published 2012).

In the oligonucleotide strings, read from the 5' end, every base follows the letter of its sugar. An asterisk marks phosphorothioate; unmarked linkages are phosphodiester. Other units and linkages are bracketed, terminal groups are in braces. A string of capitals states the bases alone. e = 2'-O-(2-methoxyethyl) (MOE); [5mC] = 5-methylcytosine; d = 2'-deoxy (DNA)

Common to all, as to assay type: cell-based
Data set [1] has as its system human Factor 7 mRNA. Kind of data set: Inhibition of human Factor 7 mRNA by 2-10-2 MOE shortmers in HepB3 cells, electroporation, 1,000 nM. Conditions: electroporation, 1,000 nM oligonucleotide, approximately 24 hours, relative to untreated control cells. The source says: Short antisense oligonucleotides (shortmers) were designed to target a Factor 7 nucleic acid. The shortmers in Table 17 were designed as 2-10-2 MOE gapmers. The gapmers are 14 nucleotides in length, wherein the central gap segment is comprised of 10 2′-deoxynucleotides and is flanked on both sides (in the 5′ and 3′ directions) by wings comprising 2 nucleotides each. Each nucleotide in the 5′ wing segment and each nucleotide in the 3′ wing segment has a 2′-MOE modification. The internucleoside linkages throughout each gapmer are phosphorothioate (P═S) linkages. All cytidine residues throughout each gapmer are 5-methylcytidines.
Shortmers were evaluated for their ability to reduce human Factor 7 mRNA in HepB3 cells and compared with one 5-10-5 chimeric oligonucleotide from Table 16, ISIS 407939. HepB3 cells at a density of 20,000 cells per well in a 96-well plate were transfected using electroporation with 1,000 nM of antisense oligonucleotide. After a treatment period of approximately 24 hours, RNA was isolated from the cells and Factor 7 mRNA levels were measured by real-time RT-PCR, as described herein. Factor 7 mRNA levels were adjusted according to total RNA content as measured by RIBOGREEN®. Results are presented in Table 17 as percent inhibition of Factor 7 mRNA, relative to untreated control cells. ISIS 407939 is the first oligonucleotide in […] to which the shortmers were compared, and is marked by an asterisk (*).

Data set [2] has as its system human Factor 7 mRNA. Kind of data set: Antisense inhibition of human Factor 7 mRNA in HepB3 cells, lipofectin, 50 nM, real-time RT-PCR. Conditions: HepB3 cells. The gist of the method:
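Cells plated at 4,000 per well were transfected and harvested after approximately 24 hours of treatment. Transcript levels, measured with primer probe set RTS 2927, were normalised to total RNA by RIBOGREEN®. Values are percent inhibition relative to untreated control cells.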
(In general: Quantitative PCR measures a nucleic acid by following its amplification.)

Data set [3] concerns human Factor 7 mRNA. Kind of data set: Dose-dependent antisense inhibition of human Factor 7 in HepB3 cells, transfection with lipofectin. Conditions: for percent inhibition of Factor 7 mRNA, relative to untreated control cells: lipofectin, HepB3 cells, 16 hours. The method, then: Cells were plated at a density of 4,000 cells per well and treated with lipofectin reagent with 3.125 nM, 6.25 nM, 12.5 nM, 25 nM, 50 nM, and 100 nM concentrations of antisense oligonucleotide, as indicated in Table 3. After a treatment period of approximately 16 hours, RNA was isolated from the cells and Factor 7 mRNA levels were measured by real-time RT-PCR, as described herein. Human Factor 7 primer probe set RTS 2927 (forward sequence: […], incorporated herein as SEQ ID NO: 164; reverse sequence: […], incorporated herein as SEQ ID NO: 165; probe sequence: TGGGTGGTCTCCGCGGCCX, incorporated herein as SEQ ID NO: 166) was used to measure mRNA levels. Factor 7 mRNA levels were adjusted according to total RNA content as measured by RIBOGREEN®. Results are presented as percent inhibition of Factor 7, relative to untreated control cells.
Cells were plated at a density of 4,000 cells per well and transfected using lipofectin reagent with 6.25 nM, 12.5 nM, 25.0 nM, 50.0 nM, and 100.0 nM concentrations of antisense oligonucleotide, as indicated in Table 7. After a treatment period of approximately 16 hours, RNA was isolated from the cells and Factor 7 mRNA levels were measured by real-time RT-PCR, as described herein. Human Factor 7 primer probe set RTS 2927 was used to measure mRNA levels. Factor 7 mRNA levels were adjusted according to total RNA content as measured by RIBOGREEN®. Results are presented as percent inhibition of Factor 7, relative to untreated control cells.
Cells were plated at a density of 4,000 cells per well and transfected using lipofectin reagent with 3.125 nM, 6.25 nM, 12.5 nM, 25 nM, 50 nM, and 100 nM concentrations of antisense oligonucleotide, as specified in Table 14. After a treatment period of approximately 16 hours, RNA was isolated from the cells and Factor 7 mRNA levels were measured by quantitative real-time PCR. Human Factor 7 primer probe set RTS 2927 was used to measure mRNA levels. Factor 7 mRNA levels were adjusted according to total RNA content, as measured by RIBOGREEN®. Results are presented as percent inhibition of Factor 7, relative to untreated control cells.

Where [4] appears, read: lipofectin, 50 nM antisense oligonucleotide, approximately 24 hours, primer probe set RTS 2927, relative to untreated control.
[5] abbreviates: Example 5, HepB3, lipofectin, ~16 h.
[6] abbreviates: Example 5, HepB3, lipofectin, 12.5 nM, ~16 h.
The mark [7] stands for this setting: Example 2, HepB3, lipofectin, ~16 h.

“435786 (antisense eA*eG*dG*dT*dG*dA*d[5mC]*d[5mC]*d[5mC]*dG*dT*dG*eA*eG) [compound 435786]”: in data set [1], the “% inhibition of human Factor 7 mRNA” value came to 68%.
On to “435794 (antisense eG*eA*dG*dG*dT*dA*d[5mC]*dA*d[5mC]*dA*dG*dG*e[5mC]*eT) [compound 435794]”, for which the “% inhibition of human Factor 7 mRNA” value in data set [1] is recorded as 26%.
Consider “435747 (antisense eA*eT*dA*dT*d[5mC]*dA*dT*dT*dG*dA*d[5mC]*dA*eA*eG) [compound 435747]”, for which, in data set [1], the “% inhibition of human Factor 7 mRNA” value stood at 0%.
For “435659 (antisense eT*eA*d[5mC]*d[5mC]*d[5mC]*d[5mC]*dT*d[5mC]*dG*dT*dG*dG*e[5mC]*eA) [compound 435659]”, the “% inhibition of human Factor 7 mRNA” value in data set [1] worked out at 18%.
Still for that read-out and setting: the value for “435821 (antisense eA*eG*dT*d[5mC]*dA*dG*dT*dA*d[5mC]*dA*dG*dA*e[5mC]*eA) [compound 435821]” was 0%; that for “435774 (antisense eG*eT*d[5mC]*d[5mC]*d[5mC]*dA*dG*dG*dG*dA*dA*dG*eG*e[5mC]) [compound 435774]” was 17%.
“435688 (antisense eA*e[5mC]*d[5mC]*dA*d[5mC]*dA*dT*dG*dG*dT*d[5mC]*dA*eG*eT) [compound 435688]”: in data set [1], the “% inhibition of human Factor 7 mRNA” value is given as 0%.
Turning to “435805 (antisense eT*eG*dA*dA*dT*dT*dA*d[5mC]*dT*dG*dA*dA*e[5mC]*e[5mC]) [compound 435805]”, the “% inhibition of human Factor 7 mRNA” value in data set [1] came to 0%.
On to “435834 (antisense eT*eG*dA*d[5mC]*dA*dG*d[5mC]*dA*d[5mC]*dG*dA*dA*eG*e[5mC]) [compound 435834]”, for which the “% inhibition of human Factor 7 mRNA” value in data set [1] was found to be 20%.
For “435829 (antisense eG*eG*dG*dT*dA*dG*dA*d[5mC]*d[5mC]*d[5mC]*dT*d[5mC]*eA*eG) [compound 435829]”, the “% inhibition of human Factor 7 mRNA” value in data set [1] is 18%.
As to “435638 (antisense eA*eG*d[5mC]*d[5mC]*d[5mC]*dT*dG*dA*dA*dG*d[5mC]*d[5mC]*e[5mC]*eA) [compound 435638]”, the “% inhibition of human Factor 7 mRNA” value in data set [1] amounted to 55%.
Take “435645 (antisense eG*eG*dA*dG*d[5mC]*dT*dG*dG*dT*d[5mC]*d[5mC]*dT*eT*eG) [compound 435645]”: the “% inhibition of human Factor 7 mRNA” value in data set [1] is 44%.
As for “435672 (antisense eA*e[5mC]*d[5mC]*d[5mC]*dA*dG*dA*dT*dG*dG*dT*dG*eT*eT) [compound 435672]”, the “% inhibition of human Factor 7 mRNA” value in data set [1] came to 12%.
Still for that read-out and setting: the value for “435637 (antisense eT*eG*dA*dA*dG*d[5mC]*d[5mC]*d[5mC]*dA*dA*dG*d[5mC]*eA*eG) [compound 435637]” was 11%; that for “435685 (antisense eA*eG*dG*dA*d[5mC]*d[5mC]*dA*d[5mC]*dG*dG*dG*d[5mC]*eT*eG) [compound 435685]” was 40%; that for “435725 (antisense eG*e[5mC]*dA*dG*d[5mC]*d[5mC]*dT*dG*dA*dG*dG*d[5mC]*e[5mC]*eA) [compound 435725]” was 79%.
Take “435636 (antisense eG*eA*dG*dA*d[5mC]*d[5mC]*dA*dT*dG*dA*dT*dG*eA*eA) [compound 435636]”: in data set [1], the “% inhibition of human Factor 7 mRNA” value came to 13%.
For “435839 (antisense eG*eG*dT*d[5mC]*dA*dG*d[5mC]*dT*dG*dG*dT*d[5mC]*eT*eG) [compound 435839]”, the “% inhibition of human Factor 7 mRNA” value in data set [1] came to 14%.
For the substance “416438 (antisense e[5mC]*eA*eG*eG*eA*dG*d[5mC]*d[5mC]*d[5mC]*d[5mC]*d[5mC]*dA*dT*dT*d[5mC]*eT*eG*eG*e[5mC]*eA) [compound 416438]”, in data set [2] (setting [4]), the “% Inhibition of human Factor 7 mRNA levels” value was found to be 63%. For the same substance, in data set [3] (setting [5]), the “percent inhibition of Factor 7 mRNA, 6.25 nM” value (“percent inhibition … 6.25 nM” for short) amounted to 11%; the “percent inhibition of Factor 7 mRNA, 25.0 nM” value (shortened to “percent inhibition … 25.0 nM”) came out at 56%; the “percent inhibition of Factor 7 mRNA, 50.0 nM” value (“percent inhibition … 50.0 nM” for short) stood at 75%; the “percent inhibition of Factor 7 mRNA, 100.0 nM” value (“percent inhibition … 100.0 nM” below) stood at 82%. Besides, in data set [3] (setting [6]), the “percent inhibition of Factor 7 mRNA, 12.5 nM” value (“percent inhibition … 12.5 nM” below) is on record as 33%.
For “416449 (antisense eT*eA*eG*eG*eT*dA*dT*dT*dT*dT*dT*d[5mC]*d[5mC]*dA*d[5mC]*eA*eT*eG*eG*eA) [compound 416449]”, the “% Inhibition of human Factor 7 mRNA levels” value in data set [2] (setting [4]) was 68%. In addition, in data set [3] (setting [5]), the “percent inhibition … 6.25 nM” value amounted to 19%; the “percent inhibition … 25.0 nM” value worked out at 45%; the “percent inhibition … 50.0 nM” value came to 65%; the “percent inhibition … 100.0 nM” value is 85%. In addition, in data set [3] (setting [6]), the “percent inhibition … 12.5 nM” value was 33%.
As to “422294 (antisense eG*eA*dG*dT*dT*d[5mC]*dT*dG*d[5mC]*dA*dG*dG*dA*dG*d[5mC]*eG*eG*e[5mC]*e[5mC]*eT) [compound 422294]”, the “% Inhibition of human Factor 7 mRNA levels” value in data set [2] (gapmers (5-10-5, 3-14-3, 2-13-5 MOE) targeted to nucleobases 4868 to 4899 of SEQ ID NO: 1) stood at 78%. The “percent inhibition of Factor 7 mRNA, relative to untreated control cells” value in data set [3] (3.125 nM) was determined as 9%; in data set [3] (12.5 nM), 32%; in data set [3] (25 nM), 61%; in data set [3] (50 nM), 77%; in data set [3] (100 nM) it was 84%; in data set [3] it was 21%.
Turning to “407594 (antisense e[5mC]*e[5mC]*eT*eG*e[5mC]*dA*dG*d[5mC]*d[5mC]*dA*dG*dG*d[5mC]*dA*dG*e[5mC]*e[5mC]*e[5mC]*eT*eG) [compound 407594]”, the “% Inhibition (human Factor 7 mRNA)” value in data set [2] (Example 1, lipofectin, 50 nM, ~24 h, relative to untreated control cells) is on record as 87%. The “percent inhibition of Factor 7 mRNA, 3.125 nM” value in data set [3] (Example 2, HepB3, lipofectin, 3.125 nM, ~16 h) amounted to 10%. In data set [3] (setting [7]), the “percent inhibition … 6.25 nM” value is given as 34%; the “percent inhibition … 25.0 nM” value worked out at 77%; the “percent inhibition … 50.0 nM” value is on record as 84%; the “percent inhibition … 100.0 nM” value worked out at 80%. Further, the “percent inhibition … 12.5 nM” value in data set [3] (Example 2, HepB3, lipofectin, 12.5 nM, ~16 h) is 63%.
Turning to “416455 (antisense e[5mC]*eG*e[5mC]*e[5mC]*eG*dG*d[5mC]*dT*d[5mC]*dT*dG*d[5mC]*dT*d[5mC]*dA*eT*e[5mC]*e[5mC]*e[5mC]*e[5mC]) [compound 416455]”, in data set [2] (setting [4]), the “% Inhibition of human Factor 7 mRNA levels” value was 72%. The “% Inhibition of human Factor 7 mRNA levels” value in data set [2] (gapmers targeted to nucleobases 13760 to 13789 of SEQ ID NO: 1 (Table 10)) worked out at 51%. In data set [3] (setting [5]), the “percent inhibition … 6.25 nM” value is given as 28%; the “percent inhibition … 25.0 nM” value was 64%; the “percent inhibition … 50.0 nM” value is 78%; the “percent inhibition … 100.0 nM” value is reported as 87%. The “percent inhibition … 12.5 nM” value in data set [3] (setting [6]) is 44%.
